Assay: in vivo
Conditions: rat
Method: Male Lewis rats weighing approximately 300 g were used. […] This dose was administered by gavage. The nasal dose of (1') was administered to rats after surgical isolation of the nasal cavity. The trachea was cannulated to allow free breathing, and a closed tube was inserted anteriorly through the esophagus to block the posterior part of the nasal cavity. The incisive ducts were closed with an adhesive to prevent drainage into the mouth. The dose was administered through the nares with a microliter syringe via polyethylene tubing. […] Serial blood samples (~0.5 ml) were collected into heparinized test tubes after cutting the tip of the tail. […] Aliquots of the acid were injected onto the HPLC. […] Du Pont) attached to a guard column packed with cyano packing. A liter of mobile phase contained […] of 0.1 M acetate buffer at pH 3.5, 480 ml acetontrile, 5 ml tetrahydrofuran, and 0.75 g sodium heptanesulfonate. […] Detection was by ultraviolet (uv) absorbance at 252 nm. The detection limit was 0.12 μg/ml plasma. […] Systemic bioavailability after oral and nasal doses was calculated for each rat as the ratio of AUC^oral or ^nasal /AUC^iv, using the average AUC^iv and correcting for the differences in dose. Values are expressed as percentage (%) of dose.

Tmax (1 mg/kg): ≤ 10 min
Bioavailability (F) (2 mg/kg): 100 % of Dose
AUC at 3 h (4 mg/kg): 1340 ± 140 ng·h/mL
bioavailability (4 mg/kg, Nasal Bioavailability (F)): 53 ± 5.5%
AUC at 3 h (iv, 2 mg/kg): 1260 ± 90 ng·h/mL
AUC at 3 h (po, 20 mg/kg): 1150 ± 240 ng·h/mL
bioavailability (po, 20 mg/kg, Oral Bioavailability (F)): 9.1 ± 1.9%
SMILES: O=C1N(c2ccccc2)c2ccccc2C1(Cc1ccncc1)Cc1ccncc1 [1']

Reference: patent US4965066A, “Intranasal administration of 3,3-disubstituted indolines” (E. I. Du Pont de Nemours and Company, priority 1989, dated 1990)
